The results in this text go back to patent US20030134859A1 (SANKYO COMPANY, LIMITED, priority 2000, published 2003).

One test deals with Rat white adipocytes. The test is described as follows: Inhibition of the differentiation of adipocytes (Oil Red O). The note with it: 100 nM test compound, 5 days, Oil Red O ABS550, control = 100%, blank = 0%, Table 3; for activity at 0.1 µM: Rattus norvegicus, Adipocyte, 120 h, read-out: Rate of Differentiation (%). It is filed as cell-based. On the procedure: Rat white adipocytes contained in the white adipocyte culture kit purchased from HOKUDO were used. As the medium for proliferation and for differentiation-inducing, the medium contained in the white adipocyte culture kit purchased from HOKUDO was used. The cells in the present experiment were cultured in a CO2 incubator (37° C., 95% R.H., 5% CO2).
Immediately after arrival of the purchased cells, all medium for transportation was discarded and replaced with 5 ml of proliferation medium (/25 cm^2-flask) and the cells were cultured for one day. Then, a cell suspension was prepared with proliferation medium so as to be 83,000 cells/mL, and the cell suspension was plated into a type I 96-well collagen-coated microplate (SUMITOMO BAKELITE CO., ltd.) so as to be 5,000 cells/well (60 μL/well).
On the next day, all the proliferation medium was discarded and replaced with 147 μL/well of differentiation-inducing medium. Further, 1) in the group treated with the test compound, 3 μL/well of the solution, in which a test compound (100 μM) was dissolved in DMSO solution and diluted with differentiation-inducing medium by 20 times (final concentration of the test compound: 100 nM, final concentration of DMSO solution: 0.1% (v/v)), were added to the well where the cells were plated. 2) In the control group, 3 μL/well of DMSO solution that was diluted with differentiation-inducing medium by 20 times (final concentration of DMSO: 0.1% (v/v)) were added to the well where the cells were plated. Further, 3) in the blank group, 3 μL/well of DMSO solution that was diluted with differentiation-inducing medium by 20 times (final concentration: 0.1% (v/v)), was added to the blank well.
After culturing for 5 days, all differentiation-inducing medium was discarded and replaced with 60 μL of 10% (v/v) formaldehyde solution (for fixation) in each well and the cells were kept stationary for 20 min at room temperature. After this, the fixative solution was discarded and replaced with 60 μL of 0.2% (v/v) Triton X (Sigma-Aldrich Japan K. K.) solution in each well and kept stationary for 5 min at room temperature. Then all Triton X solution was discarded and replaced with 60 μL of 60% (v/v) isopropanol solution containing dissolved Oil Red O (Sigma-Aldrich Japan K. K.) so as to be 0.3%, which was adipose tissue staining solution, and the well was left stationary for 10 min at room temperature. After the adipose tissue staining solution was discarded, the well was washed twice with 60 JIL of 60% isopropanol solution. Then, 100 μL of the DMSO solution were added to each well and stirred for 5 min at room temperature, The absorbance was measured at 550 nm (ABS550) with a multi-plate reader (LabSystems), and the stained amount with Oil Red O was determined. The measured level at ABS550 in the control group was defined as 100%, while the level at ABS550 in the blank group was defined as 0%. The differentiation rate (%) of the adipocytes treated with the test compound was calculated.

The next test deals with leptin production. The test is described as follows: Enhancing activity for leptin production in adipocytes (ELISA). The format is cell-based, rat. The following applies: Rattus norvegicus, Adipocyte, leptin concentration as % of control group, read-out: Facilitating activity to produce leptin; for activity at 0.001 µM: 1 nm; for activity at 0.01 µM: 10 nm; for activity at 0.1 µM: 100 nm. As to the method:
Hanks solution was used for collection of adipose tissue. The Hanks solution was prepared by filtration of a mixed solution (pH: 7.5) of 120 mM NaCl, 4.8 mM KCl, 0.74 mM MgSO4, 0.30 mM Na2HPO4, 0.40 mM KH2PO4, 20 mM HEPES, 0.05% (w/v) glucose, 2% (w/v) BSA (Sigma-Aldrich Japan K. K., Cat. No. A7888), 0.95 mM CaCl2, 4.17 mM NaHCO3 and 1% (v/v) penicillin-streptomycin liquid (GIBCO BRL, Cat. No. 15140-122). The adipocytes were cultured in Dulbecco's modified Eagle's medium (GIBCO BRL, Cat. No. 11995-040) mixed with DMEM/F-12 (GIBCO BRL, Cat. No. 11320-033) at a ratio of 1:1, and added 0.2% (v/v) Hanks solution, 0.2 μg/L sodium selenite (GIBCO BRL, Cat. No. 13012-018), 0.002% (v/v) ethanolamine, 25 mM HEPES and 1% (v/v) penicillin-streptomycin liquid (GIBCO BRL, Cat. No. 15140-122). As many as possible of the other reagents used were special grade. In this experiment, the cells were cultured in a CO2 incubator (37° C., 95% humidity, 5% CO2).
Male Wistar Imamichi rats of 6 weeks old were sacrificed by bleeding following decapitation, and adipose tissue was removed from the epididymis and sectioned after the vessels were removed in warmed Hanks solution at 37° C. and were weighed. One (1) mL of Hanks solution containing 10 mg collagenase (Wako Pure Chemical Industries, Ltd., 034-10533) was added to the adipose tissue prepared. The solution was transferred into a tube having a volume of 50 mL, and the cells were evenly dispersed by incubation under gentle shaking at 37° C., 90 rpm, for 50 min. Then 20 mL of Hanks solution were added and filtrated through Nylon-mesh with a mesh diameter of 200 μm for removal of undigested tissue pieces. The floating adipocytes were separated from sediments and substances located in the lower layer by centrifugation at 1,000 rpm for 1 min at room temperature. The sediment and 22 mL of the low layer were pulled out with a probe, and the floating adipocytes were recovered. This procedure was repeated twice with Hanks solution and for 4 times with the culture medium. After these procedures the adipocytes were suspended in the culture medium at a volume of 60 mL per 1 g of the adipose tissue weighed previously. 100 μL of the suspended solution were plated in each well of a 96-well microplate (ASAHI TECHNO GLASS Corp.) In the group treated with the test compound, 1 μL/well of DMSO solution containing the dissolved the test compound at concentrations of 200 μM, 20 μM, 2 μM and 0.2 μM (final concentrations of the test compound: 1 μM, 100 nM, 10 nM and 1 nM, respectively) was plated in each of the well. In the control group, 1 μL/well of DMSO (final concentration: 0.1% (v/v)) was plated in each well. The plate was placed stationary in a CO2 incubator for 1 hr or longer, and the contents in the solution were equilibrated at 37° C. After they were equilibrated, the solution in each well was stirred with a magnetic stirrer in a water bath and the suspended solution maintained at 37° C. was plated into each well of the plate at 100 μL/well. After incubation of the cells for 24 hr, the suspended solution of cells was filtrated through a filter for the microplate, MultiScreen (MILLOPORE, MDV-N65). The concentration of leptin in the filtrated solution was determined with ELISA methods by using a Rat Leptin Determination Kit-IBL (Immuno-Biological Laboratories Co., Ltd., Cat. No. 17195). The facilitating activity of the compound to produce leptin was calculated from the following equation based on the concentration of leptin determined.
Facilitating Activity of the Compound to Produce Leptin (%)=(A/B)×100
A: Concentration of Leptin in the Treated Group with the Test Compound.
B: Concentration of Leptin in the Control Group.
Background: ELISA stands for enzyme-linked immunosorbent assay.

Read-outs that look alike come from different tables or passages of the source.

As to `CC(C)(C)OC(=O)N1CCN(c2ccc(NC(=O)c3cc([N+](=O)[O-])ccc3Cl)cc2)CC1` [Example 132, N-[4-(4-tert-Butoxycarbonylpiperazin-1-yl)phenyl]-(2-chloro-5-nitrophenyl)carboxamide], in the test on Rat white adipocytes, the activity at 0.1 µM worked out at 26.9%. In addition, in the test with leptin production (24 h), the activity at 1 µM came out at 127%, the activity at 0.001 µM came to 123%, the activity at 0.01 µM stood at 137% and the activity at 0.1 µM turned out to be 119%.
Take `O=C(Nc1ccc(-c2ccc(NC(=O)c3cc([N+](=O)[O-])ccc3Cl)cc2)cc1)c1cc([N+](=O)[O-])ccc1Cl` [Example 163, 4-[4-[(2-Chloro-5-nitrophenyl)carbonylamino)phenyl]phenyl-(2-chloro-5-nitrophenyl)carboxamide]: the activity at 0.1 µM in the test on Rat white adipocytes worked out at 48%. Moreover, in the test with leptin production (24 hr), the activity at 1 µM amounted to 124%, the activity at 0.001 µM came to 108%, the activity at 0.01 µM was 117% and the activity at 0.1 µM stood at 118%.
For the compound `O=C(Nc1ccc(C(O)(C(F)(F)F)C(F)(F)F)cc1)c1cc([N+](=O)[O-])ccc1Cl` [Example 237, N-[4-(2,2,2-Trifluoro-1-hydroxy-1-trifluoromethylethyl)phenyl]-(2-chloro-5-nitrophenyl)carboxamide], the activity at 0.1 µM with Rat white adipocytes turned out to be 46.9%.
Take `CN1c2ccccc2N=C(c2ccc(NC(=O)c3cc([N+](=O)[O-])ccc3Cl)cc2)c2cc3c(cc21)C(C)(C)CCC3(C)C` [Example 240, N-[4-(5,7,7,10,10-Pentamethyl-7,8,9,10-tetrahydro-5H-5,13-diazabenzo[4,5]cyclohepta[1,2-b]naphthalen-12-yl)phenyl]-(2-chloro-5-nitrophenyl)carboxamide]: in the test on Rat white adipocytes, the activity at 0.1 µM stood at 35.2%.
Same read-out and setting: for `NC(=O)Nc1ccc(-c2ccc(NC(=O)c3cc([N+](=O)[O-])ccc3Cl)cc2)cc1` [Example 243, N-[4-[4-(Aminocarbonylamino)phenyl]phenyl]-(2-chloro-5-nitrophenyl)carboxamide] the value was 41.1%; for `COc1cccc(NC(=O)Nc2ccc(-c3ccc(NC(=O)c4cc([N+](=O)[O-])ccc4Cl)cc3)cc2)c1` [Example 247, N-[4-[4-[(3-Methoxyphenyl)aminocarbonylamino]phenyl]phenyl]-(2-chloro-5-nitrophenyl)carboxamide], 54%; for `O=C(NC(=S)Nc1ccc(-c2ccc(NC(=O)c3cc([N+](=O)[O-])ccc3Cl)cc2)cc1)c1ccccc1` [Example 250, N-[4-[4-(Benzoylaminothiocarbonylamino)phenyl]phenyl]-(2-chloro-5-nitrophenyl)carboxamide], 40.8%.
The same measure, in the same setting: for `Nc1nc(-c2ccc(NC(=O)c3cc([N+](=O)[O-])ccc3Cl)cc2)cs1` [Example 255, N-[4-(2-Aminothiazol-4-yl)phenyl]-(2-chloro-5-nitrophenyl)carboxamide] the value was 55%.
With `CC(C)(C)OC(=O)Nc1ccc2nc(NC(=O)c3cc([N+](=O)[O-])ccc3Cl)sc2c1` [Example 260, N-[(6-tert-Butoxycarbonylamino)benzothiazol-2-yl]-(2-chloro-5-nitrophenyl)carboxamide], in the test on Rat white adipocytes, the “Rate of Differentiation (%)” value stood at 84.6%.
Take `CC(=O)Nc1nc(-c2ccc(NC(=O)c3cc([N+](=O)[O-])ccc3Cl)cc2)cs1` [Example 265, N-[4-(2-Acetylaminothiazol-4-yl)phenyl]-(2-chloro-5-nitrophenyl)carboxamide]: the activity at 0.1 µM with Rat white adipocytes came out at 80.8%.
The same measure, in the same setting: for `CC(=O)Nc1nc(-c2cccc(NC(=O)c3cc([N+](=O)[O-])ccc3Cl)c2)cs1` [Example 266, N-[3-(2-Acetylaminothiazol-4-yl)phenyl]-(2-chloro-5-nitrophenyl)carboxamide] the value was 63.5%; for `CCOC(=O)NC(=S)NCCc1ccc(NC(=O)c2cc([N+](=O)[O-])ccc2Cl)cc1` [Example 272, N-[4-(2-Ethoxycarbonylaminothiocarbonylaminoethyl)phenyl]-(2-chloro-5-nitrophenyl)carboxamide], 41.7%; for `O=C(Nc1cccc(CCO)c1)c1cc([N+](=O)[O-])ccc1Cl` [Example 275, N-[3-(2-Hydroxyethyl)phenyl]-(2-chloro-5-nitrophenyl)carboxamide], 47.9%.
“N-[4-(3-Methanesulfonylaminophenyl)thioazol-2-yl]-(2-chloro-5-nitrophenyl)carboxamide [Example 278]”: in the test with Rat white adipocytes, the “Rate of Differentiation (%)” value was found to be 68.6%.
